Laboratory results taken from patent US9062275B2, “Compositions rich in omega-3 fatty acids with a low content in phytanic acid” (NATAC PHARMA, S.L., priority 2009, dated 2015).

Legend:
retinas from rats = experiment: MNU-induced retinal apoptosis in vivo
Protocol: The same materials and immunohystochemical and quantification methods as in Experiment A were used. Instead of using Paraquat for inducing apoptosis, N-Nitroso-N-methylurea (MNU) (Sigma-Alldrich) was used. Instead of analysing cultures in vitro, as in Experiment A, retins from sacrificed Wistar albino rats were analysed. For that purpose, 8 rats S-D with 42 days of age were selected and fed for 4 weeks with a standard basal diet. Each animal was fed in a different way: one rat was on a standard on control diet, while for the other 7 rats this diet was modified with DHA at 15%, having different concentrations of PhA as in Experiment A: 0/4/20/100/500/2500/12500 μgPhA/g of oil. After these 4 weeks, they were injected a single intraperitoneal injection of MNU (75 mg/kg body weight). All rats were on the same diet for 6 days, being sacrificed at the 7th day, after having fast for 24 hours, when the extraction of retinas was carried out, following the fixation and immunohystochemical processes as in Experiment A. For the cytochemical studies, 10 fields/samples were randomly quantified, where results represent the 10 eye/sample mean.

photoreceptors = experiment: Paraquat-induced photoreceptor apoptosis in vitro; type: cell-based, Wistar albino rats
Protocol: Tyramide signal amplification (TSA)-FISH PerkinElmer, Boston, Mass., USA.); secondary antibodies, monoclonal antibodies to-Bax (sc-7480), Bcl-2 (sc-7382), rodopsine RET-P1 (sc-57433) (Santa Cruz Biotechnology, Inc.—USA), PhA, Docosahexaenoic acid, Paraquat Dichloride, (Sigma-Alldrich). Solvents and reactors had HPLC and analytic grade.
Purified cultures of neurons from Wistar albino rats were prepared according to Politi et al., (1966) and treated in a poli-ornithine medium as in Adler-R (1982). On the first day of culture, equal concentrations of DHA (9 mM) were added to neuron cultures, with 7 different concentrations of PhA ([…]), usually found in marine origin oils rich in DHA, and 2 controls without DHA, with or without Paraquat. On the third day of culture, Paraquat was added, incubating it for 24 h before fixing it for an hour with paraformaldehyde in a phosphate buffered saline (0.9% NaCl in 0.01 M NaH2PO4 [pH 7.4], following 15 minutes with Triton X-100 (0.1%). In the apoptosis, the expression of Bax and Bcl-2 was determined and quantified according to the method Rotstein-N P et al. (2003). For the cytochemical studies, 10 fields/samples were randomly quantified, where results represent the of 3 samples/plate mean for each concentration of DHA with PhA.

[1] = tested on: leukotrienes, prostaglandin E2, prostaglandin F2; conditions: cited from earlier work
[2] = toxic at doses as low as; cited from earlier work
[3] = DHA oils <5 μg/g of PhA compared with larger concentrations

SMILES	ratio Bcl-2/Bax (retinas from rats; 20 μg/g of PhA versus rats fed with <5 μg/g)	neutralisation of the inhibitor effect of the apoptosis (retinas from rats; PhA up to 12500 μgPhA/g of oil)	anti-apoptotic activity in photoreceptors (retinas from rats; diet with DHA at 15%, PhA between 0 and 20 μg/g, MNU 75 mg/kg i.p.)	physiological activity as an inhibitor of apoptosis (FIG. 2) (retinas from rats; oral consumption of DHA <5 μg/g of PhA)	anti-apoptotic activity and markers Bax and Bcl-2 with regards to DHA without PhA added (retinas from rats; rats fed with DHA <5 μg/g)	anti-apoptotic activity in photoreceptors (photoreceptors; DHA 9 mM with 0 and 4 μg/g of PhA, compared with ≧20 and ≧100 μg/g)	inhibitory activity of apoptosis (FIG. 1) (photoreceptors; [3])	oxidative stress produced (FIG. 1) (photoreceptors; [3])	anti-apoptotic activity in photoreceptors (photoreceptors; DHA with ≧20 μg/g and ≧100 μg/g of PhA)	activity to inhibit apoptosis of photoreceptors (photoreceptors; PhA concentration 2500 μg/g)	apoptosis of photoreceptors (photoreceptors; PhA concentrations higher than 2500 μg/g)	oxidative stress (Bcl-2/Bax index) (photoreceptors; PhA ≦20 μg/g compared with ≧100 μg/g)	inhibition of the synthesis of leukotrienes [1]	reduction of prostaglandin E2 [1]	reduction of prostaglandin F2 [1]	toxic dose [2]
CC/C=C\C/C=C\C/C=C\C/C=C\C/C=C\C/C=C\CCC(=O)O [DHA]	significantly lower	no neutralisation	greater anti-apoptotic activity	greater physiological activity	do not reveal alterations	notably higher	greater inhibitory activity of apoptosis	less	significantly reduced	neutralised	apoptosis of photoreceptors is induced	significantly less oxidative stress	76%	40%	81%	
CC(C)CCCC(C)CCCC(C)CCCC(C)CC(=O)O (stereo not shown) [PhA, phytanic acid]																0.1 μmol/mg fat
